Laboratory results as given in publication PMC6892925, “Development of Novel Silyl Cyanocinnamic Acid Derivatives as Metabolic Plasticity Inhibitors for Cancer Treatment” (Scientific Reports, 2019).

Assays:
[1] = biological target: T1, MCT1 (Rattus norvegicus, UniProt P53987); experiment: MCT1 inhibition assay via L-[14C]-lactate uptake in RBE4 cells; format: cell-based; conditions: L-[14C]-lactate uptake, MCT1 expressing RBE4 cell line; average ± SEM of three separate experiments; read-out: MCT1 IC50
T1 construct: using an L-[^14C]-lactate study on the MCT1 expressing RBE4 cell line; endogenous in cells; host or cells: RBE4 (rat brain endothelial 4) cells, a gift from F. Roux
T1 sequence (P53987 1-494): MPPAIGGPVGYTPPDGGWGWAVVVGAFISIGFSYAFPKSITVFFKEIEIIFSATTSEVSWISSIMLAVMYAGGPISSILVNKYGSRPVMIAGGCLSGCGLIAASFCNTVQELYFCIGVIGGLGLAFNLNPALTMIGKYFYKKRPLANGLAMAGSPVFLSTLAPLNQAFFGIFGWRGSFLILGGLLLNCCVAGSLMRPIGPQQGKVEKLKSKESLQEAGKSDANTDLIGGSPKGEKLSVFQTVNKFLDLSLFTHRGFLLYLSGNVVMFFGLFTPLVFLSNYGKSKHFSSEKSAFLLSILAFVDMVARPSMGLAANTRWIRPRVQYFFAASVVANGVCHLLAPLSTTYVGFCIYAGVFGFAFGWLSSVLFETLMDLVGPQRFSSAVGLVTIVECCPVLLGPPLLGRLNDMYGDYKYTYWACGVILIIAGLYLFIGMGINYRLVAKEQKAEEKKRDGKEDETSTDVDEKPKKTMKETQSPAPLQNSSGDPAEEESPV

[2] = tested on: MCF7, 4T1, WiDr, and MDA-MB-231 cell lines; experiment: MTT cell proliferation inhibition, all cell lines tested; format: cell-based; conditions: read-out: MTT IC50 values, span over all the cell lines tested
Experimental: (§3) Cell proliferation inhibition was evaluated using 3-(4,5-dimethylthiazol-2-yl)-2,5-diphenyl tetrazolium bromide (MTT) assay as reported previously[19].

[3] = tested on: MCT1 expressing WiDr cell line; experiment: Seahorse XFe96 glycolysis stress test (ECAR); format: cell-based, human; conditions: 30 µM, vs DMSO control
Experimental: (§1) Candidate compounds 2a and 2b were evaluated for their effect on glycolysis, glycolytic capacity and glycolytic reserve. This assay measures extracellular acidification rate (ECAR) which is directly correlated with the rate of glycolysis. The ECAR for both cell lines in the presence of the test compounds can be seen above (Fig. 4B,C). In this assay, cells were initially starved of glucose to reduce their ECAR. Upon addition of glucose, a rise in ECAR was observed proportional to the rate of glycolysis in each cell line. An increase in basal levels of glycolysis in cells treated with test compounds compared to the controls represents a shift toward dependency on glycolysis for ATP production. […] Glycolytic capacity is the maximum rate of glycolysis the cell can attain in the absence of OxPhos as an ATP source.
(§2) 20,000 cells/well were plated in 96-well Seahorse plates (Agilent, part no. 101085-004) and incubated 16–24 hours at 37 °C at 5% CO2. Flux pack sensors (Agilent, part no. 102416-100) were hydrated with XF calibrant solution (Agilent, part no. 100840-000) overnight at 37 °C in a non-CO2 incubator. The serum free assay media was prepared from Seahorse base medium (Agilent, part no. 102353-100) enriched with glutamine (1 mM) and sodium pyruvate (1 mM). The pH of the media was adjusted to 7.4. For glycolysis stress test the serum free assay media was used. For the mitochondrial stress test glucose (10 mM) was added to make an enriched serum free assay media. For both stress tests an 8X stock concentration of test compounds in their respective media was prepared for microplate injections in port A. Stock solutions of glucose (90 mM), oligomycin (10 μM), and 2-deoxyglucose (Chem Impex, 550 mM) were prepared such that their final working concentrations are 10 mM, 1 μM and 50 mM, respectively, for glycolysis stress test. For mitochondrial stress test, stock solutions of oligomycin (9 µM), FCCP (2.5–10 µM, cell line dependent), rotenone + antimycin A (5.5 µM) were prepared such that their final concentrations were 1 µM, 0.25–1 µM, and 0.5 µM, respectively in the enriched test media. Under glycolytic stress test, the cells were treated with test compounds, followed by the addition of glucose, oligomycin and 2-deoxyglucose at 14.29, 33.8, 53.35, 72.87 minutes, respectively. Under mitochondrial stress test, cells were treated with test compounds, followed by the addition of oligomycin, FCCP, and rotenone + antimycin A, at 14.29, 33.8, 53.35, 72.87 minutes, respectively. Extracellular acidification rates (ECAR) and oxygen consumption rates (OCR) were recorded in real-time for glycolysis and mitochondrial stress tests, respectively, using a Seahorse XFe96® analyzer (Agilent). The parameters related to glycolytic and mitochondrial functions were calculated utilizing the Wave 2.4.0 software (Agilent). ATP rate assay experiment was performed using manufactures (Agilent) protocol, and respective mitochondrial and glycolytic ATP rates were normalized to protein (BCA assay) and calculated using Wave 2.4.0 software.

[4] = tested on: MCT4 expressing MDA-MB-231 cell line; experiment: Seahorse XFe96 glycolysis stress test (ECAR); format: cell-based, human; conditions: 30 µM, MDA-MB-231, vs DMSO control
Experimental: as §1, §2

[5] = tested on: MCT1 expressing WiDr tumor xenograft; experiment: In vivo tumor growth inhibition study, WiDr tumor xenograft; set-up: species or system mouse; conditions: 25 mg/kg i.p., 16 days; for tumor growth suppression: vs control group
Experimental: Based on in vitro cell proliferation inhibition, MCT1 inhibition, and effects on glycolysis/mitochondrial function, we advanced candidate compounds 2a and 2b for translational in vivo safety and efficacy studies. […] Next, an MCT1 expressing WiDr tumor xenograft model was chosen to evaluate the efficacy of 2a and 2b. After tumors were inoculated, they were allowed to reach ~150 mm^3 volume, and mice were randomly divided into three groups. Group-1 was administered 25 mg/kg (i.p.) of compound 2a, group-2 was administered with 25 mg/kg (i.p.) of 2b, and group-3 was designated as control group and given an injection of vehicle. Treatment was continued for 16 days, and tumor volumes were recorded. […] During the two-week treatment period, there was no significant loss of body weights in mice between treated and control groups. […] At the end of the study, all the tumors were resected, and the tumor mass was weighed (Fig. 6D).
WiDr cells (5 × 10^6 cells) were suspended in 1:1 mixture of matrigel (Corning, cat. no. 356237) and PBS and injected subcutaneously into the right flank of female athymic nude mice (Charles River). The mice were randomly assigned into 3 groups (n = 6 mice per group). Vertical and horizontal diameters of tumors were measured every two- or three-days using calipers. The tumor volumes were calculated assuming a perfect sphere using the formula V = ab^2/2 where ‘a’ is the longer diameter of the tumor and ‘b’ is the shorter diameter of the tumor. Treatment was initiated when the tumor volume reached 100 mm^3. The study was terminated after sixteen days and tumors were then resected and weighed. All procedures performed using this method were approved by the University of Minnesota Institutional Animal Care and Use Committee (IACUC, protocol no. 1612-34444A) and are in accordance with all guidelines and regulations.

[6] = tested on: MDA-MB-231 cell line; experiment: MTT cell proliferation inhibition assay; conditions: Homo sapiens, MDA-MB-231, read-out: MTT IC50
Experimental: (§4) Human triple-negative breast cancer MDA-MB-231 cells (ATCC) were grown in DMEM supplemented with 10% FBS (Atlanta Biologicals) and penicillin-streptomycin (50U/ml, 50 µg/ml, Invitrogen). Human colorectal adenocarcinoma WiDr cells (ATCC) were cultured in MEM medium supplemented with 10% FBS and penicillin-streptomycin. […] Murine metastatic breast cancer 4T1 cells were grown in RPMI-1640 supplemented with 10% FBS and penicillin-streptomycin. Human estrogen receptor positive breast cancer MCF7 cells (Masonic Cancer Center, University of Minnesota) were grown in MEM supplemented with 6% FBS, EGF (0.01 µg/ml), NEAA, HDC (1 µg/ml), insulin (10 µg/ml), HEPES (12 mM) and sodium pyruvate (1 mM).
as §3

[7] = tested on: 4T1 cell line; experiment: MTT cell proliferation inhibition assay; conditions: Mus musculus, 4T1, read-out: MTT IC50
Experimental: as §4, §3

Compound | IC50 [1] | IC50 [2] | basal glycolysis (ECAR) [3] | glycolytic reserve (ECAR) [3] | basal glycolysis (ECAR) [4] | glycolytic capacity (ECAR) [4] | glycolytic reserve (ECAR) [4] | tumor volume vs control group [5] | tumor growth suppression [5] | IC50 [6] | IC50 [7]
CC(C)(C)[Si](Oc1ccc(/C=C(\C#N)C(=O)O)cc1)(c1ccccc1)c1ccccc1 [2a] | 0.408 ± 0.005 µM | 6 to 93 µM | significantly increased | significant decrease | significantly increased | significantly reduced | significant decrease | significant suppression in tumor volume | 36% | 93 µM | 56 ± 1 µM
CC(C)(C)[Si](OCCOc1ccc(/C=C(\C#N)C(=O)O)cc1)(c1ccccc1)c1ccccc1 [2b] | 0.097 ± 0.007 µM | 6 to 93 µM | significantly increased | significant decrease | significantly increased | significantly reduced | significant decrease |  | 28% | 71 ± 1 µM | 22 ± 1 µM
